Measured values from PMC8596843, “Platinum Cyclooctadiene Complexes with Activity against Gram‐positive Bacteria” (Chemmedchem, 2021).

Columns and labels:
human red blood cells = assay: Haemolysis assay; type: cell-based; conditions: for Haemolysis HC10: concentration inducing 10 % haemolysis
Description: (§1) As part of the CO‐ADD screening, all compounds that show any activity against a microbial strain are evaluated for their cytotoxicity against human embryonic kidney cells (HEK‐293) and for haemolysis against human red blood cells. None of the compounds tested for cytotoxicity (Pt1‐9 and Pd1) caused any significant cell death up to concentrations of 100 μM. […] We have also observed higher IC50 values for the methylated complexes Pt3 and Pt4 against HeLa cells in previous work.[16]
(§2) The resultant mid-log phase cultures were diluted
(§3) Gram-negative and Gram-positive bacteria, respectively.
(§4) final concentration range of 0.8 – 100 µM.
(§5) inhibitors as positive control.
(§6) Tamoxifen (Sigma T5648) was used
(§7) as internal control on each plate.
in a Neubauer haemocytometer.
incubated for 1 h at 37 °C, without shaking.
HC10 and HC50 (concentration at which 10%
for top, bottom and slope using Prism 8. […]

[1] = tested on: B. subtilis ATCC 6051 type strain; assay: MIC in the presence of human serum (serum reversal); type: cell-based, Bacillus subtilis; conditions: 10% serum
Text: (§8) To obtain some initial insight into the apparent disparity between in vitro and in vivo results, we repeated the MIC experiments against four selected Gram‐positive strains in the presence of 10 % or 50 % human serum (Table S3). Pt1 and Pt2 maintained some antibacterial activity against B. subtilis in the presence of 10 % serum, but a complete loss of activity was observed against MRSA and GISA (50 % serum), and VRE (10 % serum). […] Systemic administration is therefore unlikely to be a suitable administration route for this class of compounds unless an alternative formulation that can prevent serum binding (e. g. by lipid or nanoparticle encapsulation) can be found. […] Further in vivo studies should therefore focus on more suitable disease models. […]
(§9) Antibacterial minimum inhibitory concentration (MIC) assay
(§10) concentration. (in-house screening)
(§11) Bacto Laboratories 212322) at 37 °C overnight.
as §2, §3, §4
(§12) inhibitors as positive control. […]

S. aureus NRS 17 GISA = assay: as above; type: cell-based, Staphylococcus aureus; conditions: 50% serum
Text: as §8, §9, §10, §11, §2, §3, §4, §12

[2] = tested on: S. aureus ATCC 43300 MRSA; assay: as above; type: cell-based, Staphylococcus aureus; conditions: 50% serum
Text: as §8, §9, §10, §11, §2, §3, §4, §12

[3] = tested on: HEK-293 ATCC CRL-1573 human embryonic kidney cells; type: cell-based
Description: as §1, with “work.[16] […]” for “work.[16]”
as §5, §6, §7
in a Neubauer haemocytometer. […]

[4] = tested on: E. coli lpxC (non‐efficient lipid A production mutant); assay: MIC against E. coli membrane mutants; type: cell-based, Escherichia coli; conditions: Table S2
Description: as §9, §10, §11, §2, §3, §4, §12

[5] = tested on: Staphylococcus aureus ATCC 25923, MSSA; assay: Antibacterial MIC assay, Gram-positive panel; type: cell-based; conditions: Table S1 panel; n=4
Text: (§13) Bis(dimethyl-η4)-((1Z,1'E,5Z,5'E)-(1,1'-bi(cyclooctadiene))diplatinum(II) (Pt14) Smiles: C1C=CCCC(=CC1)C1=CCCC=CCC1.C[Pt]C.C[Pt]C
(§14) InChIKey: PHIWIZAHOBWKFJ-HPCBIOCFSA-N
(§15) Link to selected data that was repeated to approve the identity of the compounds: https://dx.doi.org/10.14272/PHIWIZAHOBWKFJ-HPCBIOCFSA-N.1
(§16) ATCC strains were sourced from the American Type Culture Collection and NRS strains from NARSA (Network on Antimicrobial Resistance in Staphylococcus aureus) via BEI Resources (www.beiresources.org), with clinical MSSA and MRSA isolates from Prof Graeme Nimmo, Queensland […]
(§17) Health Central Pathology. […]
as §9
(§18) Compound Assay Plate Preparation: Compounds were dissolved in DMSO at 10mM (CO-ADD screening) or 4 mM (follow up screening) and were plated in a 2-fold dose response from 20 to 0.156 µM or 200 to 0.006 µM respectively, with a maximum of 0.5% or 1% DMSO, final in the assay […]
(§19) plated in a 2-fold dose response from 200 to 0.006 µM, with a maximum of 1 % DMSO, final in the assay concentration. (in-house screening)
(§20) For all the bacterial assays, each strain was cultured in Cation-adjusted Mueller Hinton broth (CAMHB; Bacto Laboratories 212322) at 37 °C overnight. A sample of each culture was then diluted 40-fold in fresh CAMHB and incubated at 37 °C for 1.5–3 h. The resultant mid-log phase cultures were diluted with CAMHB (CFU mL−1 measured by OD600), then added to each well of the compound-containing plates (384-well non-binding surface (NBS) plates; Corning CLS3640), giving a cell density of 5 × 10^5 CFU mL−1 and a total volume of 50 μL. Plates were covered and incubated at 37 °C for 18 h without shaking. Inhibition of bacterial growth was determined measuring absorbance at 600 nm (OD600), using media only as negative control and bacteria without inhibitors as positive control. MIC values were determined as the lowest concentration at which the growth was inhibited at ≥80%. Colistin sulfate (Sigma C4461) and vancomycin HCl (Sigma 861987) were used as internal controls on each plate for Gram-negative and Gram-positive bacteria, respectively. […]

[6] = tested on: Staphylococcus aureus VRS 1, VRSA (VanA); assay: Antibacterial MIC assay, Gram-positive panel; type: cell-based; conditions: Table S1 panel; n=4
Text: as §13, §14, §15, §16, §17, §9, §18, §19, §20

[7] = tested on: E. faecium ATCC 51559 MDR, VRE; assay: MIC in the presence of human serum (serum reversal); type: cell-based, Enterococcus faecium; conditions: 10% serum
Text: as §8, §9, §10, §11, §2, §3, §4, §12

[8] = tested on: Bacillus subtilis ATCC 6051, type strain; assay: Antibacterial MIC assay, Gram-positive panel; type: cell-based; conditions: Table S1 panel; n=2
Description: (§21) Smiles: C1C=CCCC(=CC1)C1=CCCC=CCC1.C[Pt]C.C[Pt]C […]
as §16, §17, §9, §18, §19, §20

[9] = tested on: Enterococcus faecalis Clinical Isolate, VRE (VanB); assay: Antibacterial MIC assay, Gram-positive panel; type: cell-based; conditions: Table S1 panel; n=4
Description: as §21, §16, §17, §9, §18, §19, §20

[10] = tested on: Enterococcus faecalis ATCC 29212, control strain; assay: Antibacterial MIC assay, Gram-positive panel; type: cell-based; conditions: Table S1 panel; n=4
Description: as §21, §16, §17, §9, §18, §19, §20

[11] = tested on: Enterococcus faecium ATCC 51559, MDR, VRE (VanA); assay: Antibacterial MIC assay, Gram-positive panel; type: cell-based; conditions: Table S1 panel; n=2
Description: as §21, §16, §17, §9, §18, §19, §20

[12] = tested on: Enterococcus faecium ATCC 35667, type strain; assay: Antibacterial MIC assay, Gram-positive panel; type: cell-based; conditions: Table S1 panel; n=4
Description: as §21, §16, §17, §9, §18, §19, §20

[13] = tested on: Staphylococcus epidermidis ATCC 14990, type strain; assay: Antibacterial MIC assay, Gram-positive panel; type: cell-based; conditions: Table S1 panel; n=4
Description: as §21, §16, §17, §9, §18, §19, §20

[14] = tested on: Enterococcus faecium Clinical Isolate, VRE (VanA); assay: Antibacterial MIC assay, Gram-positive panel; type: cell-based; conditions: Table S1 panel; n=4
Description: as §21, §16, §17, §9, §18, §19, §20

SMILES	Haemolysis HC10 (human red blood cells)	MIC in the presence of human serum [1]	MIC in the presence of human serum (S. aureus NRS 17 GISA)	MIC in the presence of human serum [2]	CC50 [3]	MIC E. coli lpxC [4]	MIC [5]	MIC [6]	MIC in the presence of human serum [7]	MIC [8]	MIC [9]	MIC [10]	MIC [11]	MIC [12]	MIC [13]	MIC [14]	Haemolysis HC50 (human red blood cells; concentration inducing 50 % haemolysis)
CC[C@H](C)[C@H](NC(=O)CN)C(=O)NCC(=O)N[C@@H](C)C(=O)N[C@H](C(=O)N[C@@H](CC(C)C)C(=O)N[C@@H](CCCCN)C(=O)N[C@H](C(=O)N[C@@H](CC(C)C)C(=O)N[C@H](C(=O)N[C@H](C(=O)NCC(=O)N[C@@H](CC(C)C)C(=O)N1CCC[C@H]1C(=O)N[C@@H](C)C(=O)N[C@@H](CC(C)C)C(=O)N[C@H](C(=O)N[C@@H](CO)C(=O)N[C@@H](Cc1c[nH]c2ccccc12)C(=O)N[C@H](C(=O)N[C@@H](CCCCN)C(=O)N[C@@H](CCCNC(=N)N)C(=O)N[C@@H](CCCCN)C(=O)N[C@@H](CCCNC(=N)N)C(=O)N[C@@H](CCC(N)=O)C(=O)N[C@@H](CCC(N)=O)C(N)=O)[C@@H](C)CC)[C@@H](C)CC)[C@@H](C)O)[C@@H](C)O)C(C)C)C(C)C [Melittin, reference compound]	1.15 µM	–	–	–	–	–	–	–	–	–	–	–	–	–	–	–	–
C1=C\CC/C=C\CC/1.[Cl][Pd][Cl] [Pd1]	7.76 µM	> 200 µM	> 200 µM	> 200 µM	> 100 µM	> 200 µM	200 µM	> 200 µM	> 200 µM	> 200 µM	> 200 µM	> 200 µM	200 µM	> 200 µM	100 µM	> 200 µM	10.14 µM
